The source of these data is BindingDB's records for doi:10.1021/jm00124a027 (Syntex Research, 1989).

pIC50: −log10 of the molar value.

This test can be described thus: Inhibition of thromboxane A2 synthetase as reduced ADP-induced aggregation of human platelet rich plasma in the presence of pig aortal microsomes.
Broadly, the pIC50 is the IC50 on a negative log10 scale, so that one unit is a factor of ten. With `Cn1c(/C=C/C(=O)O)ccc1Cn1ccnc1`, the pIC50 was 5.42.
Consider `COC(=O)[C@@H]1CC1c1ccc(Cn2ccnc2)n1C` (some centres not stated), for which the pIC50 is 5.04.
As for `C/C(=C/c1ccc(Cc2cccnc2)n1CC(C)(C)C)C(=O)O`, the figure is 4.11.
The same measure for `C/C(=C/c1ccc(Cc2cccnc2)n1C)C(=O)O`: 7.30.
The same measure for `C/C(=C/c1ccc(Cn2ccnc2)n1C)C(=O)O`: 6.00; for `C/C(=C\c1ccc(Cn2ccnc2)[nH]1)C(=O)O`: 5.04.
For `C/C(=C/c1ccc(Cc2cccnc2)n1-c1ccccc1)C(=O)O`, the pIC50 is 4.62.
As for `C/C(=C\c1cc(Cn2ccnc2)n(C)c1)C(=O)O`, the figure is 5.80; as for `C/C(=C/c1ccc(Cc2cccnc2)n1C(C)C)C(=O)O`, 5.68.
The same measure for `Cn1cc(/C=C/C(=O)O)cc1Cn1ccnc1`: 5.34; for `C/C(=C/c1cc(Cc2cccnc2)n(C(C)(C)C)c1)C(=O)O`: 7.36; for `CCn1c(/C=C(/C)C(=O)O)ccc1Cc1cccnc1`: 7.38.
